Active and inactive are the calls of the source. No cut-off for these calls is given here.
Assays:
[1] = tested on: HMEC-1; assay: Antiproliferative activity against HMEC1 cells after 2 days by MTT assay; format: functional, cell-based; conditions: Homo sapiens, HMEC-1, 48 h
[2] = tested on: HL-60; assay: Antiproliferative activity against human HL60 cells after 2 days by MTT assay; format: functional, cell-based; conditions: HL-60, 48 h
[3] = tested on: HeLa; assay: Antiproliferative activity against human HeLa cells after 2 days by MTT assay; format: functional, cell-based; conditions: 48 h
[4] = tested on: A549; assay: Cell cycle arrest in human A549 cells assessed as accumulation at G0/G1 phase at 200 nM after 20 hrs by propidium iodide staining based flow cytometry (reference value: 66 +/- 1%); format: functional
[5] = tested on: A549; assay: Cell cycle arrest in human A549 cells assessed as accumulation at sub-G0 phase at 200 nM after 20 hrs by propidium iodide staining based flow cytometry (reference value: 6.6 +/- 0.1%); format: functional
[6] = tested on: MDA-MB-231; assay: Antiproliferative activity against human MDA-MB-231 cells after 3 days by coulter counting method; format: functional, cell-based; conditions: MDA-MB-231, 72 h
[7] = tested on: A549; assay: Antiproliferative activity against human A549 cells after 2 days by MTT assay; format: functional, cell-based; conditions: A549, 48 h
[8] = tested on: A549; assay: Cell cycle arrest in human A549 cells assessed as accumulation at G2/M phase at 200 nM after 20 hrs by propidium iodide staining based flow cytometry (reference value: 11 +/- 1%); format: functional
[9] = tested on: MCF7; assay: Antiproliferative activity against human MCF7 cells after 2 days by MTT assay; format: functional, cell-based; conditions: MCF7, 48 h
[10] = tested on: HT-29; assay: Antiproliferative activity against human HT-29 cells after 2 days by MTT assay; format: functional, cell-based; conditions: HT-29, 48 h
[11] = tested on: HEK293; assay: Antiproliferative activity against HEK293 cells after 2 days by MTT assay; format: cell-based; conditions: Homo sapiens, HEK293, 48 h
[12] = tested on: A549; assay: Cell cycle arrest in human A549 cells assessed as accumulation at S phase at 200 nM after 20 hrs by propidium iodide staining based flow cytometry (reference value: 16 +/- 1%); format: functional
[13] = tested on: MDA-MB-231; assay: Inhibition of EBI binding to beta-tubulin colchicine binding site in human MDA-MB-231 cells at 3 uM preincubated for 16 hrs followed by EBI addition and measured after 1.5 hrs by Western blot analysis; format: cell-based
[14] = Selectivity index, ratio of IC50 for antiproliferative activity against HEK293 cells to IC50 for antiproliferative activity against human MCF7 cells; format: toxicity, cell-based; conditions: HEK293 cells versus MCF7 cells, read-out: Ratio IC50
[15] = tested on: A549; assay: Cell cycle arrest in human A549 cells assessed as accumulation at sub-G0 phase at 75 nM after 20 hrs by propidium iodide staining based flow cytometry (reference value: 6.6 +/- 0.1%); format: functional
[16] = tested on: A549; assay: Induction of apoptosis in human A549 cells at 100 nM after 24 hrs by Annexin V-FITC/propidium iodide staining based flow cytometry (reference value: 28%); format: functional
[17] = tested on: A549; assay: Cell cycle arrest in human A549 cells assessed as accumulation at G0/G1 phase at 75 nM after 20 hrs by propidium iodide staining based flow cytometry (reference value: 66 +/- 1%); format: functional
[18] = tested on: HMEC-1; assay: Vascular disruptive activity in HMEC1 cells assessed as disruption of preformed tubular networks after 4 hrs by matrigel based assay; format: functional, cell-based; conditions: Homo sapiens
[19] = tested on: A549; assay: Cell cycle arrest in human A549 cells assessed as accumulation at G2/M phase at 75 nM after 20 hrs by propidium iodide staining based flow cytometry (reference value: 11 +/- 1%); format: functional
[20] = tested on: A549; assay: Induction of apoptosis in human A549 cells at 10 nM after 24 hrs by Annexin V-FITC/propidium iodide staining based flow cytometry (reference value: 28%); format: functional
[21] = Selectivity index, ratio of IC50 for antiproliferative activity against HEK293 cells to IC50 for antiproliferative activity against human HT-29 cells; format: toxicity, cell-based; conditions: HEK293 cells versus HT-29 cells, read-out: Ratio IC50
[22] = tested on: A549; assay: Cell cycle arrest in human A549 cells assessed as accumulation at S phase at 75 nM after 20 hrs by propidium iodide staining based flow cytometry (reference value: 16 +/- 1%); format: functional
[23] = tested on: A549; assay: Induction of apoptosis in human A549 cells after 24 hrs by Annexin V-FITC/propidium iodide staining based flow cytometry; format: functional, cell-based
[24] = Selectivity index, ratio of IC50 for antiproliferative activity against HEK293 cells to IC50 for antiproliferative activity against human HeLa cells; format: toxicity, cell-based; conditions: HEK293 cells versus HeLa cells, read-out: Ratio IC50
[25] = Selectivity index, ratio of IC50 for antiproliferative activity against HEK293 cells to IC50 for antiproliferative activity against human HL60 cells; format: toxicity, cell-based; conditions: HEK293 cells versus HL60 cells, read-out: Ratio IC50
[26] = tested on: A549; assay: Cell cycle arrest in human A549 cells assessed as accumulation at S phase at 65 nM after 20 hrs by propidium iodide staining based flow cytometry (reference value: 16 +/- 1%); format: functional
[27] = tested on: A549; assay: Disruption of microtubule network in human A549 cells assessed as appearance of compressed and fragmented nuclei at 260 nM after 16 hrs by Hoechst staining based immunofluorescence assay; format: cell-based
[28] = tested on: A549; assay: Cell cycle arrest in human A549 cells assessed as accumulation at sub-G0 phase at 65 nM after 20 hrs by propidium iodide staining based flow cytometry (reference value: 6.6 +/- 0.1%); format: functional
[29] = tested on: A549; assay: Disruption of microtubule network in human A549 cells assessed as appearance of tubulin aggregates at 260 nM after 16 hrs by Hoechst staining based immunofluorescence assay; format: cell-based
[30] = tested on: A549; assay: Cell cycle arrest in human A549 cells assessed as accumulation at G0/G1 phase at 65 nM after 20 hrs by propidium iodide staining based flow cytometry (reference value: 66 +/- 1%); format: functional
[31] = tested on: A549; assay: Cell cycle arrest in human A549 cells assessed as accumulation at G2/M phase at 65 nM after 20 hrs by propidium iodide staining based flow cytometry (reference value: 11 +/- 1%); format: functional
[32] = species on record: Bos taurus; assay: Inhibition of calf brain tubulin polymerization in glycerol-assembly buffer assessed as critical concentration for tubulin assembly at 27.5 uM measured every 30 secs for 2 hrs in presence of GTP
[33] = tested on: A549; assay: Cell cycle arrest in human A549 cells assessed as accumulation at sub-G0 phase at 50 nM after 20 hrs by propidium iodide staining based flow cytometry (reference value: 6.6 +/- 0.1%); format: functional
[34] = species on record: Bos taurus; assay: Inhibition of calf brain tubulin polymerization after 60 mins by turbidimetric method
[35] = tested on: A549; assay: Cell cycle arrest in human A549 cells assessed as accumulation at G0/G1 phase at 50 nM after 20 hrs by propidium iodide staining based flow cytometry (reference value: 66 +/- 1%); format: functional
[36] = tested on: A549; assay: Cell cycle arrest in human A549 cells assessed as accumulation at S phase at 50 nM after 20 hrs by propidium iodide staining based flow cytometry (reference value: 16 +/- 1%); format: functional
[37] = tested on: A549; assay: Cell cycle arrest in human A549 cells assessed as accumulation at G2/M phase at 50 nM after 20 hrs by propidium iodide staining based flow cytometry (reference value: 11 +/- 1%); format: functional
[38] = tested on: A549; assay: Cell cycle arrest in human A549 cells assessed as accumulation at G0/G1 phase at 80 nM after 20 hrs by propidium iodide staining based flow cytometry (reference value: 66 +/- 1%); format: functional
[39] = tested on: A549; assay: Cell cycle arrest in human A549 cells assessed as accumulation at S phase at 80 nM after 20 hrs by propidium iodide staining based flow cytometry (reference value: 16 +/- 1%); format: functional
[40] = tested on: A549; assay: Cell cycle arrest in human A549 cells assessed as accumulation at sub-G0 phase at 80 nM after 20 hrs by propidium iodide staining based flow cytometry (reference value: 6.6 +/- 0.1%); format: functional
[41] = tested on: A549; assay: Cell cycle arrest in human A549 cells assessed as accumulation at G2/M phase at 80 nM after 20 hrs by propidium iodide staining based flow cytometry (reference value: 11 +/- 1%); format: functional

| Compound | IC50 [1] | IC50 [2] | IC50 [3] | IC50 [6] | IC50 [7] | IC50 [9] | IC50 [10] | IC50 [11] | inhibition [13] | selectivity ratio [14] | Activity [16] | Activity [20] | selectivity ratio [21] | Activity [23] | selectivity ratio [24] | selectivity ratio [25] | inhibition [34] | other results |
| --- | --- | --- | --- | --- | --- | --- | --- | --- | --- | --- | --- | --- | --- | --- | --- | --- | --- | --- |
| COc1ccc(/C=C\c2cc(OC)c(OC)c(OC)c2)cc1NC(=O)Oc1cccc(C)c1 | 0.05 µM | 0.067 µM | 0.023 µM | 0.0136 µM | 0.39 µM | 0.025 µM | 0.046 µM | 0.04 µM |  |  |  |  |  |  |  |  |  | Activity [4]: 26%; Activity [5]: 22%; Activity [8]: 36%; Activity [12]: 16% |
| COc1cc2c(c(OC)c1OC)-c1ccc(OC)c(=O)cc1[C@@H](NC(C)=O)CC2 |  |  |  |  |  |  |  |  | Active |  |  |  |  |  |  |  |  |  |
| COc1ccc(/C=C\c2cc(OC)c(OC)c(OC)c2)cc1NC(=O)Oc1ccc(Br)cc1 | 0.007 µM | 0.005 µM | 0.0012 µM | 0.00407 µM | 0.15 µM | 0.00075 µM | 0.0035 µM | 0.019 µM | Active | 2 to 11 | 95% | 36% | 2 to 11 | Dose-dependent effect | 2 to 11 | 2 to 11 |  | Activity [15]: 19%; Activity [17]: 32%; Activity [18]: Dose-dependent effect; Activity [19]: 33%; Activity [22]: 17% |
| COc1ccc(/C=C\c2cc(OC)c(OC)c(OC)c2)cc1NC(=O)Oc1ccccc1Cl | 0.05 µM | 0.0037 µM | 0.005 µM | 0.0138 µM | 0.13 µM | 0.0101 µM | 0.0178 µM | 0.041 µM |  | 2 to 11 |  |  | 2 to 11 |  | 2 to 11 | 2 to 11 |  | Activity [26]: 12%; Activity [27]: Active; Activity [28]: 16%; Activity [29]: Active; Activity [30]: 29%; Activity [31]: 43% |
| COc1ccc(/C=C\c2cc(OC)c(OC)c(OC)c2)cc1O [COMBRETASTATIN A4] | 3.4 µM | 4 µM | 2.1 µM |  | 0.13 µM |  |  |  |  |  |  |  |  |  |  |  | Active | Activity [32]: 22 µM; Activity [33]: 15%; Activity [35]: 21%; Activity [36]: 22%; Activity [37]: 43% |
| COc1ccc(/C=C\c2cc(OC)c(OC)c(OC)c2)cc1NC(=O)Oc1cccc(Br)c1 | 0.012 µM | 0.0056 µM | 0.0026 µM | 0.0134 µM | 0.16 µM | 0.0059 µM | 0.0113 µM | 0.016 µM |  | 2 to 11 | 90% | 51% | 2 to 11 | Dose-dependent effect | 2 to 11 | 2 to 11 | Active | Activity [38]: 30%; Activity [39]: 12%; Activity [40]: 17%; Activity [41]: 39% |

— ChEMBL document CHEMBL4145540 (Eur J Med Chem, 2018)
